# Read-outs that look alike come from different tables or passages of the source. Positions of bridges follow the written chain, without caps; N, C: chain ends. Non-standard residues stand in square brackets, D forms with d. Residues, ends and D or L forms follow the SMILES beside them. NMeF = CN[C@@H](Cc1ccccc1)C(=O)O
# Target: T1, human ROR1 (Homo sapiens, UniProt Q01973)
# T1 construct: host or cells: HEK 293T cells, Tet-on system induced with doxycycline
# Experiment: ROR1 high content cell-based binding assay
# Details: read-out: ROR1 Binding 293T Human HC Cell Based Assay IC50
# Experimental: ROR1 high content cell-based binding assay: Human embryonic kidney 293T cells (293T) expressing human ROR1 with Tet-on system by doxycycline were used (Arctic-488134) for the assessment of inhibition of the binding of fluorescently-labeled competing peptide (“Probe”) that specifically binds to human ROR1. […] Cryopreserved vials were thawed in a 37° C. water bath. Cells were washed in assay culture media [DMEM (Life Technologies Inc. Cat. […] Cat. No. 15140-122) and […] dox] and diluted 1.0×10^5 cells/mL. Cells were seeded into PDL-coated 384 well plates (BD Falcon Cat. No. 356663) at 2,000 cells/20 μL. Plates were allowed to incubate for 10 minutes at room temperature and then transferred to a 37° C./5% CO2 incubator for overnight incubation. The next day, 125 nL of the test compound was added using an ECHO followed by the addition of 5 μL/well of 5-FAM-labeled probe to cells at a final concentration of 30 nM. Sample were incubated for 1 hour at 37° C. for 1 hour, followed by 3 washes in […] of dPBS. Cells were fixed by adding 8% (w/v) formaldehyde (Sigma Cat. No. 252549), 20 μg/mL Hoechst (Thermo Scientific Cat. No. 62249) in PBS for 20 minutes at room temperature. The plates were washed 3 more times in dPBS and 15 μl of PBS was left in the wells following the last wash. The plates were sealed, and data was using obtained using a CellInsight NXT High Content Screening Platform IC903000 (Thermo Scientific).
# T1 sequence (Q01973 30-937): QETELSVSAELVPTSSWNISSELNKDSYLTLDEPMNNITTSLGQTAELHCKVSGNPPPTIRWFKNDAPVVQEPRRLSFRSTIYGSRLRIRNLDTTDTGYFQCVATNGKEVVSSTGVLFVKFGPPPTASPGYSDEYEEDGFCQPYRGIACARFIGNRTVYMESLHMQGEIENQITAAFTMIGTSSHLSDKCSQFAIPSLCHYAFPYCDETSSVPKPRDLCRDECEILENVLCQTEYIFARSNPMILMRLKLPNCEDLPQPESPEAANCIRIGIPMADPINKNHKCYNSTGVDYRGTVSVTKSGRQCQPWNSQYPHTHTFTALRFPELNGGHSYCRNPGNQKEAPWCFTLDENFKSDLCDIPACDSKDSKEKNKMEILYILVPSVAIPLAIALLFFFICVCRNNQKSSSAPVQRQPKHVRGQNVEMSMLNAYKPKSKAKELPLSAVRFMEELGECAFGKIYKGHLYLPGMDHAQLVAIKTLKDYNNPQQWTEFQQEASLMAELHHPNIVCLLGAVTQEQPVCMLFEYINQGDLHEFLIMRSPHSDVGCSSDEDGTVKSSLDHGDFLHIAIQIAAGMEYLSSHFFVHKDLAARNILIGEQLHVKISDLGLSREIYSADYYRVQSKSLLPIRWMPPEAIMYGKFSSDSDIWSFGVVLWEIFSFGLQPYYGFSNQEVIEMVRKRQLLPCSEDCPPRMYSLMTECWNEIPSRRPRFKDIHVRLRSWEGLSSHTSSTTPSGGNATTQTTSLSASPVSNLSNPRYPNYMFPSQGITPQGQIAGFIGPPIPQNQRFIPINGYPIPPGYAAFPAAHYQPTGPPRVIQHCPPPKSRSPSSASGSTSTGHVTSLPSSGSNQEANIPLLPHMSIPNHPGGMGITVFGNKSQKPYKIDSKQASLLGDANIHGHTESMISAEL
Compound,IC50,"IC50 (293T cells expressing human ROR1 (Tet-on, doxycycline), inhibition of binding of 5-FAM-labeled probe (Example 1300) at 30 nM, 1 hour at 37° C.)"
CC(C)C[C@@H]1NC(=O)[C@H](Cc2ccc(O)cc2)NC(=O)[C@H](Cc2ccccc2)NC(=O)CSC[C@@H](C(=O)NCC(N)=O)NC(=O)[C@H](CC(C)C)NC(=O)[C@H](Cc2ccccc2)N(C)C(=O)[C@H](Cc2ccc(O)cc2)NC(=O)[C@H](Cc2c[nH]c3ccccc23)NC(=O)CNC(=O)[C@H](CCCCN)NC(=O)[C@H](Cc2ccc(O)cc2)NC(=O)[C@H](C(C)C)NC1=O [Example 1019] ({CH2CO}-FYLVYKGWY[NMeF]LCG-NH2; thioether N-12),27 nM,
CC(C)C[C@@H]1NC(=O)[C@H](Cc2ccc(O)cc2)NC(=O)[C@H](Cc2ccccc2)NC(=O)CSC[C@@H](C(=O)NCC(N)=O)NC(=O)[C@H](CC(C)C)NC(=O)[C@H](Cc2ccccc2)N(C)C(=O)[C@H](Cc2ccc(O)cc2)NC(=O)[C@H](Cc2c[nH]c3ccccc23)NC(=O)CNC(=O)[C@H](C)NC(=O)[C@H](Cc2ccc(O)cc2)NC(=O)[C@H](C(C)C)NC1=O [Example 1020] ({CH2CO}-FYLVYAGWY[NMeF]LCG-NH2; thioether N-12),18 nM,
CC(C)C[C@@H]1NC(=O)[C@H](Cc2ccc(O)cc2)NC(=O)[C@H](Cc2ccccc2)NC(=O)CSC[C@@H](C(=O)NCC(N)=O)NC(=O)[C@H](CC(C)C)NC(=O)[C@H](Cc2ccccc2)N(C)C(=O)[C@H](Cc2ccc(O)cc2)NC(=O)[C@H](Cc2c[nH]c3ccccc23)NC(=O)CNC(=O)[C@H](CC(N)=O)NC(=O)[C@H](Cc2ccc(O)cc2)NC(=O)[C@H](C(C)C)NC1=O [Example 1021] ({CH2CO}-FYLVYNGWY[NMeF]LCG-NH2; thioether N-12),5 nM,
CC(C)C[C@@H]1NC(=O)[C@H](Cc2ccc(O)cc2)NC(=O)[C@H](Cc2ccccc2)NC(=O)CSC[C@@H](C(=O)NCC(N)=O)NC(=O)[C@H](CC(C)C)NC(=O)[C@H](Cc2ccccc2)N(C)C(=O)[C@H](Cc2ccc(O)cc2)NC(=O)[C@H](Cc2c[nH]c3ccccc23)NC(=O)CNC(=O)CNC(=O)[C@H](Cc2ccc(O)cc2)NC(=O)[C@H](C(C)C)NC1=O [Example 1022] ({CH2CO}-FYLVYGGWY[NMeF]LCG-NH2; thioether N-12),34 nM,
CC(C)C[C@@H]1NC(=O)[C@H](Cc2ccc(O)cc2)NC(=O)[C@H](Cc2ccccc2)NC(=O)CSC[C@@H](C(=O)NCC(N)=O)NC(=O)[C@H](CC(C)C)NC(=O)[C@H](Cc2ccccc2)N(C)C(=O)[C@H](Cc2ccc(O)cc2)NC(=O)[C@H](Cc2c[nH]c3ccccc23)NC(=O)CNC(=O)[C@H](CO)NC(=O)[C@H](CCCNC(=N)N)NC(=O)[C@H](C(C)C)NC1=O [Example 1023] ({CH2CO}-FYLVRSGWY[NMeF]LCG-NH2; thioether N-12),79 nM,
CC(C)C[C@@H]1NC(=O)[C@H](Cc2ccc(O)cc2)NC(=O)[C@H](Cc2ccccc2)NC(=O)CSC[C@@H](C(=O)NCC(N)=O)NC(=O)[C@H](CC(C)C)NC(=O)[C@H](Cc2ccccc2)N(C)C(=O)[C@H](Cc2ccc(O)cc2)NC(=O)[C@H](Cc2c[nH]c3ccccc23)NC(=O)CNC(=O)[C@H](CO)NC(=O)[C@H](CC(N)=O)NC(=O)[C@H](C(C)C)NC1=O [Example 1024] ({CH2CO}-FYLVNSGWY[NMeF]LCG-NH2; thioether N-12),620 nM,
CC(C)C[C@@H]1NC(=O)[C@H](Cc2ccc(O)cc2)NC(=O)[C@H](Cc2ccccc2)NC(=O)CSC[C@@H](C(=O)NCC(N)=O)NC(=O)[C@H](CC(C)C)NC(=O)[C@H](Cc2ccccc2)N(C)C(=O)[C@H](Cc2ccc(O)cc2)NC(=O)[C@H](Cc2c[nH]c3ccccc23)NC(=O)CNC(=O)[C@H](CO)NC(=O)CNC(=O)[C@H](C(C)C)NC1=O [Example 1025] ({CH2CO}-FYLVGSGWY[NMeF]LCG-NH2; thioether N-12),365 nM,
CC(C)C[C@@H]1NC(=O)[C@H](Cc2ccc(O)cc2)NC(=O)[C@H](Cc2ccccc2)NC(=O)CSC[C@@H](C(=O)NCC(N)=O)NC(=O)[C@H](CC(C)C)NC(=O)[C@H](Cc2ccccc2)N(C)C(=O)[C@H](Cc2ccc(O)cc2)NC(=O)[C@H](Cc2c[nH]c3ccccc23)NC(=O)CNC(=O)[C@H](CO)NC(=O)[C@H](CO)NC(=O)[C@H](C(C)C)NC1=O [Example 1026] ({CH2CO}-FYLVSSGWY[NMeF]LCG-NH2; thioether N-12),59 nM,
CC(C)C[C@@H]1NC(=O)[C@H](Cc2ccc(O)cc2)NC(=O)[C@H](Cc2ccccc2)NC(=O)CSC[C@@H](C(=O)NCC(N)=O)NC(=O)[C@H](CC(C)C)NC(=O)[C@H](Cc2ccccc2)N(C)C(=O)[C@H](Cc2ccc(O)cc2)NC(=O)[C@H](Cc2c[nH]c3ccccc23)NC(=O)CNC(=O)[C@H](CO)NC(=O)[C@H](C)NC(=O)[C@H](C(C)C)NC1=O [Example 1027] ({CH2CO}-FYLVASGWY[NMeF]LCG-NH2; thioether N-12),870 nM,
CC(C)C[C@@H]1NC(=O)[C@H](Cc2ccc(O)cc2)NC(=O)[C@H](Cc2ccccc2)NC(=O)CSC[C@@H](C(=O)NCC(N)=O)NC(=O)[C@H](CC(C)C)NC(=O)[C@H](Cc2ccccc2)N(C)C(=O)[C@H](Cc2ccc(O)cc2)NC(=O)[C@H](Cc2c[nH]c3ccccc23)NC(=O)CNC(=O)[C@H](CCC(=O)O)NC(=O)[C@H](Cc2ccc(O)cc2)NC(=O)[C@H](C(C)C)NC1=O [Example 1028] ({CH2CO}-FYLVYEGWY[NMeF]LCG-NH2; thioether N-12),,10 nM
CC(C)C[C@@H]1NC(=O)[C@H](Cc2ccc(O)cc2)NC(=O)[C@H](Cc2ccccc2)NC(=O)CSC[C@@H](C(=O)NCC(N)=O)NC(=O)[C@H](CC(C)C)NC(=O)[C@H](Cc2ccccc2)N(C)C(=O)[C@H](Cc2ccc(O)cc2)NC(=O)[C@H](Cc2c[nH]c3ccccc23)NC(=O)CNC(=O)[C@H](CO)NC(=O)[C@H](CCCCN)NC(=O)[C@H](C(C)C)NC1=O [Example 1029] ({CH2CO}-FYLVKSGWY[NMeF]LCG-NH2; thioether N-12),255 nM,
CC(C)C[C@@H]1NC(=O)[C@H](Cc2ccc(O)cc2)NC(=O)[C@H](Cc2ccccc2)NC(=O)CSC[C@@H](C(=O)NCC(N)=O)NC(=O)[C@H](CC(C)C)NC(=O)[C@H](Cc2ccccc2)N(C)C(=O)[C@H](Cc2ccc(O)cc2)NC(=O)[C@H](Cc2c[nH]c3ccccc23)NC(=O)CNC(=O)[C@H](CO)NC(=O)[C@H](Cc2cnc[nH]2)NC(=O)[C@H](C(C)C)NC1=O [Example 1030] ({CH2CO}-FYLVHSGWY[NMeF]LCG-NH2; thioether N-12),275 nM,
CC(C)C[C@@H]1NC(=O)[C@H](Cc2ccc(O)cc2)NC(=O)[C@H](Cc2ccccc2)NC(=O)CSC[C@@H](C(=O)NCC(N)=O)NC(=O)[C@H](CC(C)C)NC(=O)[C@H](Cc2ccccc2)N(C)C(=O)[C@H](Cc2ccc(O)cc2)NC(=O)[C@H](Cc2c[nH]c3ccccc23)NC(=O)CNC(=O)[C@H](CO)NC(=O)[C@H](CCC(N)=O)NC(=O)[C@H](C(C)C)NC1=O [Example 1031] ({CH2CO}-FYLVQSGWY[NMeF]LCG-NH2; thioether N-12),214 nM,
CC(C)C[C@@H]1NC(=O)[C@H](Cc2ccc(O)cc2)NC(=O)[C@H](Cc2ccccc2)NC(=O)CSC[C@@H](C(=O)NCC(N)=O)NC(=O)[C@H](CC(C)C)NC(=O)[C@H](Cc2ccccc2)N(C)C(=O)[C@H](Cc2ccc(O)cc2)NC(=O)[C@H](Cc2c[nH]c3ccccc23)NC(=O)CNC(=O)CNC(=O)[C@H](CCCNC(=N)N)NC(=O)[C@H](C(C)C)NC1=O [Example 1032] ({CH2CO}-FYLVRGGWY[NMeF]LCG-NH2; thioether N-12),392 nM,
CC(C)C[C@@H]1NC(=O)[C@H](Cc2ccc(O)cc2)NC(=O)[C@H](Cc2ccccc2)NC(=O)CSC[C@@H](C(=O)NCC(N)=O)NC(=O)[C@H](CC(C)C)NC(=O)[C@H](Cc2ccccc2)N(C)C(=O)[C@H](Cc2ccc(O)cc2)NC(=O)[C@H](Cc2c[nH]c3ccccc23)NC(=O)CNC(=O)[C@H](CCCNC(=N)N)NC(=O)CNC(=O)[C@H](C(C)C)NC1=O [Example 1033] ({CH2CO}-FYLVGRGWY[NMeF]LCG-NH2; thioether N-12),768 nM,
CC(C)C[C@@H]1NC(=O)[C@H](Cc2ccc(O)cc2)NC(=O)[C@H](Cc2ccccc2)NC(=O)CSC[C@@H](C(=O)NCC(N)=O)NC(=O)[C@H](CC(C)C)NC(=O)[C@H](Cc2ccccc2)N(C)C(=O)[C@H](Cc2ccc(O)cc2)NC(=O)[C@H](Cc2c[nH]c3ccccc23)NC(=O)CNC(=O)[C@H](CO)NC(=O)[C@H](C(C)C)NC(=O)[C@H](C(C)C)NC1=O [Example 1034] ({CH2CO}-FYLVVSGWY[NMeF]LCG-NH2; thioether N-12),246 nM,
CC(C)C[C@@H]1NC(=O)[C@H](Cc2ccc(O)cc2)NC(=O)[C@H](Cc2ccccc2)NC(=O)CSC[C@@H](C(=O)NCC(N)=O)NC(=O)[C@H](CC(C)C)NC(=O)[C@H](Cc2ccccc2)N(C)C(=O)[C@H](Cc2ccc(O)cc2)NC(=O)[C@H](Cc2c[nH]c3ccccc23)NC(=O)CNC(=O)[C@H](CO)NC(=O)[C@H](Cc2ccccc2)NC(=O)[C@H](C(C)C)NC1=O [Example 1035] ({CH2CO}-FYLVFSGWY[NMeF]LCG-NH2; thioether N-12),59 nM,

# Reference: US20240116988A1, “ANTI-ROR1 MACROCYCLIC PEPTIDES AND COMPOSITIONS” (BRISTOL-MYERS SQUIBB COMPANY, priority 2022, published 2024)
